Laboratory results reported in patent publication US8232406B2, “c-MET protein kinase inhibitors” (Vertex Pharmaceuticals Incorporated, priority 2006, dated 2012).
pKi: −log10 of the molar value.

Molecular target: c-MET (Homo sapiens, UniProt P08581)
Experiment: Ki determination for the inhibition of c-MET (standard radiometric 33P-ATP kinase assay, polyE4Y substrate)
Format: biochemical
Details: 1.0 nM c-Met, 35 μM ATP, 0.5 mg/mL polyE4Y, 20 min; competitive tight-binding fit
In short: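 Radiometric assay of 33P transfer from 33P-ATP (35 μM) to polyE4Y (0.5 mg/mL) by 1.0 nM c-Met in 100 mM HEPES pH 7.5, 10 mM MgCl2, 25 mM NaCl, 0.01% BSA, 1 mM DTT. TCA-quenched after 20 min, filter-captured, scintillation-counted; Ki fitted to a competitive tight-binding model.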

Chain of c-MET (P08581 25-1390): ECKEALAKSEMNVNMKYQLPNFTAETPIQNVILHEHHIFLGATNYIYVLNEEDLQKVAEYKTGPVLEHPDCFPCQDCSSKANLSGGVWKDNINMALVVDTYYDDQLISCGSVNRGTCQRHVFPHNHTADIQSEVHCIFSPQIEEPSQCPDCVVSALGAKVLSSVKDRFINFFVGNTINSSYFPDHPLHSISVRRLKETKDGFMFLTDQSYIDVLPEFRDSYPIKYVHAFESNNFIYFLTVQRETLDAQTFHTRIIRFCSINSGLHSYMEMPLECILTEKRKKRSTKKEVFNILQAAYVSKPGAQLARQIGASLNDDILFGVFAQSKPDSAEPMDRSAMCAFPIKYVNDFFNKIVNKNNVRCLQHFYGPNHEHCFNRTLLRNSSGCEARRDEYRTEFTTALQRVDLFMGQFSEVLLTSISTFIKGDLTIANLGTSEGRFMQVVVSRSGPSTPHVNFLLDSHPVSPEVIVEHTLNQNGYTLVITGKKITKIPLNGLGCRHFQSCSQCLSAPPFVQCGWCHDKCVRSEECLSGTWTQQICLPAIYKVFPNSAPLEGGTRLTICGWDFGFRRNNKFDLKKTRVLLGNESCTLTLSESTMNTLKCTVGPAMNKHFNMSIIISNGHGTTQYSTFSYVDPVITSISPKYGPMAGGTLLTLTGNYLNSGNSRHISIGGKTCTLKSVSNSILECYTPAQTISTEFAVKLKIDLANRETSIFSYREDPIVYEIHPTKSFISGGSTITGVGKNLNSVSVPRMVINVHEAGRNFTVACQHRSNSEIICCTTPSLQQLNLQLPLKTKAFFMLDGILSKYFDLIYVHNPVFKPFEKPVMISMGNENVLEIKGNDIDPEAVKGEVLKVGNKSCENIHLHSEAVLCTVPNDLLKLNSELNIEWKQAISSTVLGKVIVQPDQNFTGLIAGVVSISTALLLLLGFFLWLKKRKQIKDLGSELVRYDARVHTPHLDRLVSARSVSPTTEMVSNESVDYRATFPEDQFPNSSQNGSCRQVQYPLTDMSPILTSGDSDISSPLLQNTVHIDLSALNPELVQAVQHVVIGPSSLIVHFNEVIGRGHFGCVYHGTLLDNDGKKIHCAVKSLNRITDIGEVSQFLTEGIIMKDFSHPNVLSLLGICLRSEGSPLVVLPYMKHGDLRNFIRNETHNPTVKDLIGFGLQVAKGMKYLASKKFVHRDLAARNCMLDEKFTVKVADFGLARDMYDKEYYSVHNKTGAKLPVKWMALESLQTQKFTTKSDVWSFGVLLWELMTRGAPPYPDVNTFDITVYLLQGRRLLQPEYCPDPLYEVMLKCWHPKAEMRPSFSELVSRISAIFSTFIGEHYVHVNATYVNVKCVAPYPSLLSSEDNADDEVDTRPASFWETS

Row | Compound | pKi
1 | Cc1nnc(-c2cc(-c3cnn(C4CCNCC4)c3)cnc2N)n1-c1cccc(Cl)c1F [I-A-454] | 6.00 to 7.00
2 | CCOc1cccc(-c2cnc(N)c(-c3nncn3-c3cccc(F)c3F)n2)c1 [I-A-31] | 6.00 to 7.00
3 | Nc1ncc(-c2cnn(C3CCNCC3)c2)cc1-c1nnnn1-c1c(F)ccc(F)c1Cl [I-A-640] | ≥ 7.00
4 | Nc1ncc(C2=CCN(C(=O)C[C@@H]3CCCN3)CC2)cc1-c1nnnn1-c1cccc(F)c1F [I-A-505] | ≥ 7.00
5 | CC(C)CN1CCC(n2cc(-c3cnc(N)c(-c4nnnn4-c4cccc(Cl)c4F)c3)cn2)CC1 [I-A-475] | ≥ 7.00
6 | Nc1ncc(-c2ccc(N3CCCC3)nc2)cc1-c1nnnn1-c1cccc(Cl)c1Cl [I-A-82] | 6.00 to 7.00
7 | Nc1ncc(-c2cnn([C@@H]3CCCNC3)c2)nc1-c1nnnn1-c1cccc(F)c1F [I-A-659] | ≥ 7.00
8 | Nc1ncc(-c2cnn([C@@H]3CCNC3)c2)cc1-c1nnnn1-c1cccc(Cl)c1Cl [I-A-408] | ≥ 7.00
9 | Nc1ncc(-c2cccnc2)cc1-c1nc2cnccc2n1-c1cccc(F)c1F [I-D-1] | ≥ 7.00
10 | Nc1nc2cc(F)c(-c3cnc(N)c(-c4nnnn4-c4cccc(F)c4F)n3)cc2[nH]1 [I-A-52] | ≥ 7.00
11 | Nc1ncc(-c2ccncc2)nc1-c1nnc(O)n1-c1cccc(F)c1F [I-A-15] | 6.00 to 7.00
12 | Nc1ncc(-c2cnn(C3CCNCC3)c2)cc1-c1nnnn1-c1cc(Cl)ccc1Cl [I-A-636] | 6.00 to 7.00
13 | CN1C2CCC1CC(n1cc(-c3cnc(N)c(-c4nnnn4-c4cccc(F)c4F)c3)nn1)C2 (centres unmarked) [I-A-484] | ≥ 7.00
14 | Nc1ncc(-c2cnn(C3CCCNCC3)c2)cc1-c1nnnn1-c1cccc(Cl)c1F (centres unmarked) [I-A-651] | ≥ 7.00
15 | Nc1ncc(-c2csc(C3CCNCC3)c2)nc1-c1nnnn1-c1cccc(F)c1F [I-A-654] | 6.00 to 7.00
16 | CCCN1CCC(n2cc(-c3cnc(N)c(-c4nnnn4-c4cccc(F)c4F)c3)nn2)CC1 [I-A-482] | ≥ 7.00
17 | CN(C)CCn1cc(-c2cnc(N)c(-c3nc4cnccc4n3-c3cccc(F)c3F)c2)cn1 [I-D-9] | ≥ 7.00

Row | Compound | pKi
18 | Nc1ncc(-c2nc3c(s2)CNCC3)nc1-c1nnnn1-c1cccc(F)c1F [I-A-537] | 6.00 to 7.00
19 | Nc1ncc(-c2cnn(C3CCNCC3)c2)cc1-c1nc2cccnc2n1-c1cccc(Cl)c1F [I-D-15] | 6.00 to 7.00
20 | Nc1ncc(-c2cccnc2)cc1-c1nccn1-c1cccc(Cl)c1Cl [I-A-65] | ≥ 7.00
21 | CN(Cc1ccc(-c2cnc(N)c(-c3nnnn3-c3cccc(Cl)c3Cl)c2)cc1)Cc1cccnc1 [I-A-107] | 6.00 to 7.00
22 | Nc1ncc(-c2cnn(C3CCNCC3)c2)cc1-c1nnnn1-c1c(Cl)cccc1Cl [I-A-631] | ≥ 7.00
23 | CN(C)Cc1ccc(-c2cnc(N)c(-c3nc4cc(F)ccc4n3-c3cccc(Cl)c3F)c2)cc1 [I-D-22] | 6.00 to 7.00
24 | Nc1ncc(-c2cnn([C@H]3CCCNC3)c2)nc1-c1nnnn1-c1cccc(F)c1F [I-A-655] | ≥ 7.00
25 | Nc1ncc(-c2ccn(C3CCNCC3)c2)cc1-c1nnnn1-c1cccc(Cl)c1F [I-A-652] | ≥ 7.00
26 | Nc1ncc(C2=CCN(CC3CCOC3)CC2)cc1-c1nnnn1-c1cccc(F)c1F (centres unmarked) [I-A-643] | 6.00 to 7.00
27 | Nc1ncc(-c2ccc(C3CCNCC3)s2)cc1-c1nnnn1-c1cccc(Cl)c1F [I-A-532] | ≥ 7.00
28 | CC(=O)N1CCN(Cc2ccc(-c3cnc(N)c(-c4nc5cnccc5n4-c4cccc(F)c4F)c3)cc2)CC1 [I-D-6] | ≥ 7.00
29 | Nc1ncc(-c2cnn(C3CCNCC3)c2)cc1-c1nnnn1-c1cc(F)ccc1F [I-A-625] | 6.00 to 7.00
30 | Nc1ncc(-c2cnn(C3CCN(CCF)CC3)c2)cc1-c1nnnn1-c1cccc(F)c1F [I-A-452] | ≥ 7.00
31 | CN(C)Cc1ccc(-c2cnc(N)c(-c3nnnn3-c3cc(Cl)cc(Cl)c3)c2)cc1 [I-A-590] | 6.00 to 7.00
32 | CCNC(=O)Nc1nc2cc(-c3cnc(N)c(-c4nnnn4-c4cccc(Cl)c4Cl)c3)c(F)cc2[nH]1 [I-A-93] | 6.00 to 7.00
33 | CN1CCN(c2ccc(-c3cnc(N)c(-c4nnc(O)n4-c4cccc(F)c4F)n3)cc2)CC1 [I-A-17] | 6.00 to 7.00
34 | Nc1ncc(-c2cnn(CCN3CCCC3)c2)cc1-c1nc2cnccc2n1-c1cccc(F)c1F [I-D-11] | ≥ 7.00

Further lines, results first:

Row | pKi | Compound
35 | ≥ 7.00 | CCNC(=O)Nc1ccc(-c2cnc(N)c(-c3nnnn3-c3cccc(F)c3F)c2)cc1 [I-A-281]
36 | ≥ 7.00 | Nc1ncc(-c2ccc(C3NC(=O)NC3=O)cc2)cc1-c1nnnn1-c1cccc(F)c1F (centres unmarked) [I-A-257]
37 | ≥ 7.00 | COC(=O)C(C)NC(=O)Nc1ccc(-c2cnc(N)c(-c3nnnn3-c3cccc(F)c3F)c2)cc1 (centres unmarked) [I-A-331]
38 | ≥ 7.00 | CN(C)Cc1ccc(-c2cnc(N)c(-c3nc4cnccc4n3-c3cccc(F)c3F)c2)cc1 [I-D-4]
39 | 6.00 to 7.00 | Nc1ncc(-c2ccc(NC(=O)CN3CCOCC3)cc2)cc1-c1nnnn1-c1cccc(F)c1F [I-A-163]
40 | 6.00 to 7.00 | Cn1cnc(-c2cnc(N)c(-c3nnnn3-c3cccc(F)c3F)c2)c1 [I-A-495]
41 | 6.00 to 7.00 | CN(C)Cc1ccc(-c2cnc(N)c(-c3nnnn3-c3cc(Cl)ccc3F)c2)cc1 [I-A-593]
42 | ≥ 7.00 | Nc1ncc(C2=CCN(C(=O)C3CC3)CC2)cc1-c1nnnn1-c1cccc(F)c1F [I-A-523]
43 | ≥ 7.00 | Nc1ncc(-c2cnc3[nH]ccc3c2)cc1-c1nnnn1-c1cccc(Cl)c1Cl [I-A-92]
44 | ≥ 7.00 | Nc1ncc(-c2ccc(CN3CCCC3)cc2)cc1-c1nnnn1-c1cccc(Cl)c1Cl [I-A-94]
45 | 6.00 to 7.00 | CC1(C)CN(c2ccc(-c3cnc(N)c(-c4nnnn4-c4cccc(F)c4F)c3)cc2)C1=O [I-A-357]
46 | 6.00 to 7.00 | Nc1ncc(-c2cnn(CC(=O)N3CCCC3)c2)cc1-c1nnnn1-c1cccc(F)c1F [I-A-364]
47 | ≥ 7.00 | CC(=O)Nc1cccc(-c2cnc(N)c(-c3nc4cnccc4n3-c3cccc(F)c3F)c2)c1 [I-D-12]
48 | ≥ 7.00 | Nc1ncc(-c2ccc3[nH]ncc3c2)cc1-c1nnnn1-c1cccc(F)c1F [I-A-347]
49 | 6.00 to 7.00 | Nc1ncc(-c2ccc(NC(=O)Nc3cccs3)cc2)cc1-c1nnnn1-c1cccc(F)c1F [I-A-282]
50 | 6.00 to 7.00 | Nc1ncc(-c2cc(O)c(F)c(F)c2)cc1-c1nnnn1-c1cccc(F)c1F [I-A-291]
51 | ≥ 7.00 | Nc1ccc(-c2cnc(N)c(-c3nnnn3-c3cccc(F)c3F)c2)cc1N [I-A-298]
52 | 6.00 to 7.00 | CCCC(=O)Nc1ccc(-c2cnc(N)c(-c3nnnn3-c3cccc(F)c3F)c2)cc1 [I-A-195]
53 | ≥ 7.00 | CC(C)N1CCC(n2cc(-c3cnc(N)c(-c4nnnn4-c4cccc(F)c4F)c3)cn2)CC1 [I-A-448]
54 | 6.00 to 7.00 | CC(=O)Nc1ccc(-c2cnc(N)c(-c3nnnn3-c3cc(F)ccc3F)c2)cc1 [I-A-581]
55 | 6.00 to 7.00 | CC(=O)Nc1cccc(-c2cnc(N)c(-c3nnnn3-c3cccc(Cl)c3C)c2)c1 [I-A-565]
56 | 6.00 to 7.00 | Cn1cncc1-c1cnc(N)c(-c2nnnn2-c2cccc(F)c2F)c1 [I-A-496]
57 | 6.00 to 7.00 | Cc1nn(C2CCNCC2)c(C)c1-c1cnc(N)c(-c2nnnn2-c2cccc(F)c2F)c1 [I-A-478]
58 | 6.00 to 7.00 | Nc1ncc(-c2ccc(CN3CCCC3)cc2)cc1-c1nnnn1-c1cc(F)ccc1F [I-A-594]
59 | 6.00 to 7.00 | Nc1ncc(-c2cccnc2)cc1-c1nnnn1-c1cccc(Cl)c1Cl [I-A-83]

Row | pKi | Compound
60 | ≥ 7.00 | CN(C)CCCN(C)S(=O)(=O)c1ccc(-c2cnc(N)c(-c3nnnn3-c3cccc(F)c3F)c2)cc1 [I-A-159]
61 | ≥ 7.00 | Nc1ncc(-c2ccc(CN3CCCC3)cc2)cc1-c1nnnn1-c1cccc(Cl)c1F [I-A-343]
62 | 6.00 to 7.00 | Nc1ncc(-c2ccc(CN3CCCC3)cc2)cc1-n1nnnc1-c1cccc(F)c1F [I-E-4]
63 | 6.00 to 7.00 | COC(=O)c1cccc(-c2cnc(N)c(-c3nnnn3-c3cccc(F)c3F)c2)c1 [I-A-317]
64 | 6.00 to 7.00 | Nc1ncc(-c2cc(C(=O)O)cs2)cc1-c1nnnn1-c1cccc(F)c1F [I-A-185]
65 | ≥ 7.00 | Nc1ncc(-c2ccccc2O)cc1-c1nnnn1-c1cccc(F)c1F [I-A-145]
66 | 6.00 to 7.00 | CC(=O)c1ccc(-c2cnc(N)c(-c3nnnn3-c3cccc(F)c3F)c2)s1 [I-A-179]
67 | 6.00 to 7.00 | Nc1ncc(-c2cccc(F)c2F)cc1-c1nnnn1-c1cccc(F)c1F [I-A-301]
68 | ≥ 7.00 | Nc1ncc(-c2cccs2)cc1-c1nnnn1-c1cccc(F)c1F [I-A-487]
69 | ≥ 7.00 | Nc1ncc(-c2ccc(C3CCCN3)cc2)cc1-c1nnnn1-c1cccc(F)c1F (centres unmarked) [I-A-258]
70 | ≥ 7.00 | CC(C)C(=O)Nc1ccc(-c2cnc(N)c(-c3nnnn3-c3cccc(F)c3F)c2)cc1 [I-A-193]
71 | 6.00 to 7.00 | Nc1ncc(-c2ccn[nH]2)cc1-c1nnnn1-c1cccc(F)c1F [I-A-248]
72 | ≥ 7.00 | NCc1cccc(-c2cnc(N)c(-c3nnnn3-c3cccc(Cl)c3Cl)c2)c1 [I-A-87]
73 | ≥ 7.00 | CN(C)Cc1cccc(-c2cnc(N)c(-c3nnnn3-c3cccc(Cl)c3Cl)c2)c1 [I-A-123]
74 | 6.00 to 7.00 | CN1CCN(C(=O)Nc2cccc(-c3cnc(N)c(-c4nnnn4-c4cccc(F)c4F)c3)c2)CC1 [I-A-270]
75 | 6.00 to 7.00 | Cc1c(F)cccc1-n1nnnc1-c1cc(-c2ccc(CN(C)C)cc2)cnc1N [I-A-577]
76 | ≥ 7.00 | C[C@@H](c1ccc(-c2cnc(N)c(-c3nnnn3-c3cccc(F)c3F)c2)cc1)N1CCCC1 [I-A-211]
77 | ≥ 7.00 | Nc1ncc(-c2ccc(CN3CCCC3=O)cc2)cc1-c1nnnn1-c1cccc(F)c1F [I-A-203]
78 | 6.00 to 7.00 | CC(=O)Nc1cccc(-c2cnc(N)c(-c3nnnn3-c3cc(F)ccc3Cl)c2)c1 [I-A-569]
79 | ≥ 7.00 | CN(C)C1CCN(Cc2ccc(-c3cnc(N)c(-c4nnnn4-c4cccc(F)c4F)c3)cc2)C1 (centres unmarked) [I-A-147]
80 | ≥ 7.00 | CC(C)C(=O)N1CC=C(c2cnc(N)c(-c3nnnn3-c3cccc(F)c3F)c2)CC1 [I-A-512]
81 | 6.00 to 7.00 | COC(=O)Nc1ccc(-c2cnc(N)c(-c3nnnn3-c3cccc(F)c3F)c2)cc1 [I-A-352]
82 | ≥ 7.00 | Nc1ncc(-c2cnn(C3CCN(CC(F)F)CC3)c2)cc1-c1nnnn1-c1cccc(F)c1F [I-A-453]
83 | ≥ 7.00 | CC(C)C(=O)N1CCC(n2cc(-c3cnc(N)c(-c4nnnn4-c4cccc(Cl)c4F)c3)cn2)CC1 [I-A-441]
